Here are results for 33 compounds from US8541588B2, “Sulfonamide derivatives” (Pfizer Limited, priority 2009, dated 2013).

This test concerns the target T1, Nav1.7 (or SCN9A) channel; HEK cells stably transfected with hSCN9A (Homo sapiens, UniProt Q15858).
T1 construct: expressed in transfected cells
Put plainly: Nav1.7 block, PatchXpress 7000 automated whole-cell voltage clamp, estimated IC50 (EIC50). The format is cell-based. Particulars: estimated IC50; hSCN9A HEK cells, PatchXpress platform; Examples 815-1040.

T1 sequence (Q15858 whole entry): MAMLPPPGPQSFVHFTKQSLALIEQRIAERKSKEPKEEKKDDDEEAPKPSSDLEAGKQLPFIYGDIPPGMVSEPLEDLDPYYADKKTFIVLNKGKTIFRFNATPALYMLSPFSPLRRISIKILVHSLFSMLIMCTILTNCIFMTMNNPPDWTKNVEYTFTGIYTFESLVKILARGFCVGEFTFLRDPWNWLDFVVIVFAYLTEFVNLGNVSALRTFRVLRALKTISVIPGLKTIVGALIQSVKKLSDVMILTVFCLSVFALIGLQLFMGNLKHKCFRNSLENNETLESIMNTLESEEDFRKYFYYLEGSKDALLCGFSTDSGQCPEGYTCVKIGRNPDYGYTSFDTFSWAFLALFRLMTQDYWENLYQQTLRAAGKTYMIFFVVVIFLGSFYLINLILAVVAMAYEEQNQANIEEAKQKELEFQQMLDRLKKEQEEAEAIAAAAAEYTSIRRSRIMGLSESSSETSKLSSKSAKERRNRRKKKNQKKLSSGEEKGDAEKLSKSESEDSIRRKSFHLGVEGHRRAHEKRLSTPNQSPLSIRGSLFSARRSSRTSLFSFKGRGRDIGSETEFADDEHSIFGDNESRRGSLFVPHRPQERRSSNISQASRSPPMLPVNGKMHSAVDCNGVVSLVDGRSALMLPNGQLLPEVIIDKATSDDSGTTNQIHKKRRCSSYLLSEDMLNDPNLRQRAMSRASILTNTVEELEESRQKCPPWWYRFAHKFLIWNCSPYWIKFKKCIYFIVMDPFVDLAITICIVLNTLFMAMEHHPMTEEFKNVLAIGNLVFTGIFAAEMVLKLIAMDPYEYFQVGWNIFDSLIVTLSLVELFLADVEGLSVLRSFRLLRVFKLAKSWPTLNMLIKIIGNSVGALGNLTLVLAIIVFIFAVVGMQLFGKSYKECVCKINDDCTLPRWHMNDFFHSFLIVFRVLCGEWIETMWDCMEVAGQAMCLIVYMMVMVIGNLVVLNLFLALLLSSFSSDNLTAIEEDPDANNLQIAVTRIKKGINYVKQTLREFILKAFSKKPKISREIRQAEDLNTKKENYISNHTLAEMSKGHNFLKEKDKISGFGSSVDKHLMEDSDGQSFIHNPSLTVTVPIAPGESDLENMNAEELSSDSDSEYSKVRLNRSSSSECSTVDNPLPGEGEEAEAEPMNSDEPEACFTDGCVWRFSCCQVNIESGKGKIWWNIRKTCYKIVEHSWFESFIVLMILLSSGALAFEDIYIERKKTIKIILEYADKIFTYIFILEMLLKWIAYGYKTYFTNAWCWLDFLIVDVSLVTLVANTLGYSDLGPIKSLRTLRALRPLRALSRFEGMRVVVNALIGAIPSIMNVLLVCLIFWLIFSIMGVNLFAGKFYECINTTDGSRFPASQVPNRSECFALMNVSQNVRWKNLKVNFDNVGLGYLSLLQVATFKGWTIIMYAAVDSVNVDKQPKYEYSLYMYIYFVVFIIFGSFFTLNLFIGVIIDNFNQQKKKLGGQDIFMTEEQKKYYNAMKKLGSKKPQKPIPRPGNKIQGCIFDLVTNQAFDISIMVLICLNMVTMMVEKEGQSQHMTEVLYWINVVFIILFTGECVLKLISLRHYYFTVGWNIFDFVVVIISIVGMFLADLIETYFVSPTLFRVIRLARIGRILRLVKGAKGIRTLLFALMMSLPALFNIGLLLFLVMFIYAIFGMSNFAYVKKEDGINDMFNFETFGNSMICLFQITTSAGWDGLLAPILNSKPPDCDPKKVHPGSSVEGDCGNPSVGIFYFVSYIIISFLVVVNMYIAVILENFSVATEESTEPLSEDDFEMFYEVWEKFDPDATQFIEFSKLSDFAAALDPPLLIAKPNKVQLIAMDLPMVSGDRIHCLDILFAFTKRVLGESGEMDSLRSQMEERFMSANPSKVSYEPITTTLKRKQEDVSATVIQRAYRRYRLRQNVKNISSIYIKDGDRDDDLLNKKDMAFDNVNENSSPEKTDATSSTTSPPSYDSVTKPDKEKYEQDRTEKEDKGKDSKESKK

Broadly, the IC50 is the concentration at which inhibition is half-maximal. As for `N#Cc1cc(S(=O)(=O)Nc2nncs2)ccc1Oc1ccc(Cl)cc1-c1ccnc(N2CCNCC2)c1` [Example 835, 4-[4-chloro-2-(2-piperazin-1-ylpyridin-4-yl)phenoxy]-3-cyano-N-1,3,4-thiadiazol-2-ylbenzenesulfonamide], the IC50 was 2.1 nM.
Consider `N#Cc1cc(S(=O)(=O)Nc2ncns2)ccc1Oc1ccc(Cl)cc1C1CCOCC1` [Example 836, 4-[4-chloro-2-(tetrahydro-2H-pyran-4-yl)phenoxy]-3-cyano-N-1,2,4-thiadiazol-5-ylbenzenesulfonamide], for which the IC50 was 40 nM.
Under `O=S(=O)(Nc1ncns1)c1cc(F)c(Oc2ccc(OC(F)F)cc2-c2cn[nH]c2)cc1F` [Example 837, 4-[4-(difluoromethoxy)-2-(1H-pyrazol-4-yl)phenoxy]-2,5-difluoro-N-1,2,4-thiadiazol-5-ylbenzenesulfonamide] stands 5.8 nM; under `O=S(=O)(Nc1ncns1)c1cc(F)c(Oc2ccc(Cl)cc2-c2ccnc(CN3CCC3)c2)cc1F` [Example 838, 4-{2-[2-(azetidin-1-ylmethyl)pyridin-4-yl]-4-chlorophenoxy}-2,5-difluoro-N-1,2,4-thiadiazol-5-ylbenzenesulfonamide], 1.8 nM.
Consider `N#Cc1cc(S(=O)(=O)Nc2nncs2)ccc1Oc1ccc(Cl)cc1-c1cn[nH]c1` [Example 839, 4-[4-chloro-2-(1H-pyrazol-4-yl)phenoxy]-3-cyano-N-1,3,4-thiadiazol-2-ylbenzenesulfonamide], for which the concentration for half-maximal inhibition (IC50) was 130 nM.
`Nc1cc(-c2cc(F)ccc2Oc2cc(F)c(S(=O)(=O)Nc3ncns3)cc2Cl)[nH]n1` [Example 840, 4-[2-(3-amino-1H-pyrazol-5-yl)-4-fluorophenoxy]-5-chloro-2-fluoro-N-1,2,4-thiadiazol-5-ylbenzenesulfonamide]: the concentration for half-maximal inhibition (IC50) is 52 nM.
Turning to `O=S(=O)(Nc1cscn1)c1cc(F)c(Oc2ccc(C(F)(F)F)cc2-c2ccnn2C2CNC2)cc1F` [Example 841, 4-[2-(1-azetidin-3-yl-1H-pyrazol-5-yl)-4-(trifluoromethyl)phenoxy]-2,5-difluoro-N-1,3-thiazol-4-ylbenzenesulfonamide], the concentration for half-maximal inhibition (IC50) is 11 nM.
The result for `N#Cc1cc(S(=O)(=O)Nc2ncns2)ccc1Oc1ccc(F)cc1C1CCOCC1` [Example 842, 3-cyano-4-[4-fluoro-2-(tetrahydro-2H-pyran-4-yl)phenoxy]-N-1,2,4-thiadiazol-5-ylbenzenesulfonamide] reads 96 nM.
As for `O=S(=O)(Nc1nncs1)c1cc(Cl)c(Oc2ccc(Cl)cc2-c2ccnnc2)cc1F` [Example 843, 5-chloro-4-(4-chloro-2-pyridazin-4-ylphenoxy)-2-fluoro-N-1,3,4-thiadiazol-2-ylbenzenesulfonamide], the 50% inhibitory concentration (IC50) is 34 nM.
Under `O=S(=O)(Nc1cscn1)c1cc(Cl)c(Oc2ccc(Cl)cc2-c2ccnnc2)cc1F` [Example 845, 5-chloro-4-(4-chloro-2-pyridazin-4-ylphenoxy)-2-fluoro-N-1,3-thiazol-4-ylbenzenesulfonamide] stands 41 nM; under `O=S(=O)(Nc1ccc(F)cn1)c1cc(F)c(Oc2ccc(Cl)cc2-c2ccnnc2)cc1F` [Example 846, 4-(4-chloro-2-pyridazin-4-ylphenoxy)-2,5-difluoro-N-(5-fluoropyridin-2-yl)benzenesulfonamide], 230 nM.
Turning to `O=S(=O)(Nc1ccncn1)c1ccc(Oc2ccc(Cl)cc2-c2ccnnc2)c(Cl)c1` [Example 847, 3-chloro-4-(4-chloro-2-pyridazin-4-ylphenoxy)-N-pyrimidin-4-ylbenzenesulfonamide], the concentration for half-maximal inhibition (IC50) is 130 nM.
The result for `CCN1CC(n2nccc2-c2cc(F)ccc2Oc2cc(F)c(S(=O)(=O)Nc3ncns3)cc2Cl)C1` [Example 848, 5-chloro-4-{2-[1-(1-ethylazetidin-3-yl)-1H-pyrazol-5-yl]-4-fluorophenoxy}-2-fluoro-N-1,2,4-thiadiazol-5-ylbenzenesulfonamide] reads 5.1 nM; that for `Nc1nccc(-c2cc(Cl)ccc2Oc2cc(F)c(S(=O)(=O)Nc3ncns3)cc2F)n1` [Example 849, 4-[2-(2-aminopyrimidin-4-yl)-4-chlorophenoxy]-2,5-difluoro-N-1,2,4-thiadiazol-5-ylbenzenesulfonamide], 120 nM; that for `N#Cc1ccc(Oc2cc(F)c(S(=O)(=O)Nc3ncns3)cc2Cl)c(-c2cn[nH]c2)c1` [Example 850, 5-chloro-4-[4-cyano-2-(1H-pyrazol-4-yl)phenoxy]-2-fluoro-N-1,2,4-thiadiazol-5-ylbenzenesulfonamide], 3.2 nM.
For `N#Cc1cc(S(=O)(=O)Nc2ncns2)ccc1Oc1ccc(Cl)cc1-c1cccc(CN2CCC2)c1` [Example 852, 4-{[3′-(azetidin-1-ylmethyl)-5-chlorobiphenyl-2-yl]oxy}-3-cyano-N-1,2,4-thiadiazol-5-ylbenzenesulfonamide], the IC50 was 1.6 nM.
The result for `N#Cc1ccc(-c2cc(Cl)ccc2Oc2ccc(S(=O)(=O)Nc3ncns3)cc2C#N)nc1` [Example 853, 4-[4-chloro-2-(5-cyanopyridin-2-yl)phenoxy]-3-cyano-N-1,2,4-thiadiazol-5-ylbenzenesulfonamide] reads 740 nM; that for `N#Cc1cc(S(=O)(=O)Nc2ncns2)ccc1Oc1ccc(Cl)cc1-c1cccc(C(=O)N2CCC2)c1` [Example 854, 4-{[3′-(azetidin-1-ylcarbonyl)-5-chlorobiphenyl-2-yl]oxy}-3-cyano-N-1,2,4-thiadiazol-5-ylbenzenesulfonamide], 6.4 nM.
On to `O=C(c1cccc(-c2cc(Cl)ccc2Oc2cc(F)c(S(=O)(=O)Nc3ncns3)cc2F)c1)N1CCC1` [Example 855, 4-{[3′-(azetidin-1-ylcarbonyl)-5-chlorobiphenyl-2-yl]oxy}-2,5-difluoro-N-1,2,4-thiadiazol-5-ylbenzenesulfonamide], for which the IC50 is 4.2 nM.
Regarding `O=C(c1cccc(-c2cc(Cl)ccc2Oc2cc(F)c(S(=O)(=O)Nc3cscn3)cc2Cl)c1)N1CCC1` [Example 856, 4-{[3′-(azetidin-1-ylcarbonyl)-5-chlorobiphenyl-2-yl]oxy}-5-chloro-2-fluoro-N-1,3-thiazol-4-ylbenzenesulfonamide], the IC50 was 22 nM.
With `O=C(c1cccc(-c2cc(Cl)ccc2Oc2cc(F)c(S(=O)(=O)Nc3nncs3)cc2Cl)c1)N1CCC1` [Example 857, 4-{[3′-(azetidin-1-ylcarbonyl)-5-chlorobiphenyl-2-yl]oxy}-5-chloro-2-fluoro-N-1,3,4-thiadiazol-2-ylbenzenesulfonamide], the concentration for half-maximal inhibition (IC50) was 14 nM.
Under `O=C(c1cccc(-c2cc(Cl)ccc2Oc2ccc(S(=O)(=O)Nc3ccncn3)cc2Cl)c1)N1CCC1` [Example 858, 4-{[3′-(azetidin-1-ylcarbonyl)-5-chlorobiphenyl-2-yl]oxy}-3-chloro-N-pyrimidin-4-ylbenzenesulfonamide] stands 17 nM; under `O=C(c1cccc(-c2cc(Cl)ccc2Oc2cc(F)c(S(=O)(=O)Nc3ncns3)cc2Cl)n1)N1CCC1` [Example 859, 4-{2-[6-(azetidin-1-ylcarbonyl)pyridin-2-yl]-4-chlorophenoxy}-5-chloro-2-fluoro-N-1,2,4-thiadiazol-5-ylbenzenesulfonamide], 4.4 nM.
Consider `CN(C)c1n[nH]cc1-c1cc(Cl)ccc1Oc1cc(F)c(S(=O)(=O)Nc2cscn2)cc1Cl` [Example 860, 5-chloro-4-{4-chloro-2-[3-(dimethylamino)-1H-pyrazol-4-yl]phenoxy}-2-fluoro-N-1,3-thiazol-4-ylbenzenesulfonamide], for which the IC50 was 170 nM.
The result for `CC(C)N1CC(n2nccc2-c2cc(Cl)ccc2Oc2ccc(S(=O)(=O)Nc3cscn3)cc2C#N)C1` [Example 861, 4-{4-chloro-2-[1-(1-isopropylazetidin-3-yl)-1H-pyrazol-5-yl]phenoxy}-3-cyano-N-1,3-thiazol-4-ylbenzenesulfonamide] reads 14 nM; that for `Cn1nccc1-c1cc(Cl)ccc1Oc1ccc(S(=O)(=O)Nc2cccnn2)cc1Cl` [Example 862, 3-chloro-4-[4-chloro-2-(1-methyl-1H-pyrazol-5-yl)phenoxy]-N-pyridazin-3-ylbenzenesulfonamide], 240 nM.
Regarding `Cc1[nH]ncc1-c1cc(Cl)c(F)cc1Oc1ccc(S(=O)(=O)Nc2ncns2)cc1C#N` [Example 863, 4-[4-chloro-5-fluoro-2-(5-methyl-1H-pyrazol-4-yl)phenoxy]-3-cyano-N-1,2,4-thiadiazol-5-ylbenzenesulfonamide], the IC50 is 3.1 nM.
Consider `N#Cc1cc(S(=O)(=O)Nc2ncns2)ccc1Oc1ccc(Cl)cc1-c1cccc(C(=O)NC2CC2)c1` [Example 864, 5′-chloro-2′-{2-cyano-4-[(1,2,4-thiadiazol-5-ylamino)sulfonyl]phenoxy}-N-cyclopropylbiphenyl-3-carboxamide], for which the IC50 is 4.4 nM.
In the case of `Cc1[nH]ncc1-c1cc(Cl)ccc1Oc1ccc(S(=O)(=O)Nc2ncns2)cc1C#N` [Example 865, 4-[4-chloro-2-(5-methyl-1H-pyrazol-4-yl)phenoxy]-3-cyano-N-1,2,4-thiadiazol-5-ylbenzenesulfonamide], the IC50 is 4.4 nM.
`O=S1(=O)CCC(n2nccc2-c2cc(Cl)ccc2Oc2cc(F)c(S(=O)(=O)Nc3ncns3)cc2F)C1` (stereo not drawn) [Example 866, 4-{4-chloro-2-[1-(1,1-dioxidotetrahydro-3-thienyl)-1H-pyrazol-5-yl]phenoxy}-2,5-difluoro-N-1,2,4-thiadiazol-5-ylbenzenesulfonamide]: the half-maximal inhibitory concentration (IC50) was 14 nM.
For the compound `N#Cc1cc(S(=O)(=O)Nc2ncns2)ccc1Oc1ccc(Cl)cc1-c1cccc(CN2CC(CO)(CO)C2)c1` [Example 867, 4-[(3′-{[3,3-bis(hydroxymethyl)azetidin-1-yl]methyl}-5-chlorobiphenyl-2-yl)oxy]-3-cyano-N-1,2,4-thiadiazol-5-ylbenzenesulfonamide], the IC50 was 1.4 nM.
The result for `N#Cc1cc(S(=O)(=O)Nc2ncns2)ccc1Oc1ccc(Cl)cc1-c1ccnnc1` [Example 868, 4-(4-chloro-2-pyridazin-4-ylphenoxy)-3-cyano-N-1,2,4-thiadiazol-5-ylbenzenesulfonamide] reads 15 nM; that for `O=S(=O)(Nc1cccnn1)c1ccc(Oc2ccc(Cl)cc2-c2ccnnc2)c(Cl)c1` [Example 869, 3-chloro-4-(4-chloro-2-pyridazin-4-ylphenoxy)-N-pyridazin-3-ylbenzenesulfonamide], 540 nM.
